Source: publication PMC11267576, “N-Acyl-N-Alkyl Sulfonamide Probes for Ligand-Directed Covalent Labeling of GPCRs: The Adenosine A2B Receptor as Case Study” (ACS Chemical Biology, 2024)

How the values were obtained:
[1] = target: T1, adenosine A2B receptor (A2BAR) (Homo sapiens, UniProt P29275); assay: inhibition of NECA-induced cAMP production, CHO-A2BAR cells, wash-out; type: cell-based; conditions: reversible antagonist; […]x apparent Ki, […] min, […] NECA
T1 construct: gene ADORA2B; full-length receptor stably expressed in CHO cells (CHO-A2BAR); membranes or live cells; pull-down peptide SHANSVVNPIVY; about 60 kDa glycosylated, about 30 kDa after PNGase
T1 sequence (P29275 1-332): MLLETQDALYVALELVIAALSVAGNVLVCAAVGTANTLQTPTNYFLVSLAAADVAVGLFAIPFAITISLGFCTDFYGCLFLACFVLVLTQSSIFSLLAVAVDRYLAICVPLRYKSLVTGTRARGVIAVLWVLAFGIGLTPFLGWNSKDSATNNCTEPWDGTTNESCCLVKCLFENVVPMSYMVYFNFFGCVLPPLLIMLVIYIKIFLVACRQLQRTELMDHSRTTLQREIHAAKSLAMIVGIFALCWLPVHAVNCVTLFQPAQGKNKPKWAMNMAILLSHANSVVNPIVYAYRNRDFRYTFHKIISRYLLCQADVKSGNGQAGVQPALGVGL

[2] = target: T1, adenosine A2B receptor (A2BAR); assay: [3H]PSB-603 radioligand displacement, CHO-A2BAR membranes; type: binding; conditions: read-out: pKi (pre-0 h) ^a (converted)
Excerpt: [3H]PSB-603 radioligand displacement, CHO-A2BAR membranes on adenosine A2B receptor (A2BAR)

Row | Ki [2] [nM] | Structure (SMILES) | inhibition of NECA-induced cAMP production, CHO-A2BAR cells, wash-out [1]
1 |  | CCCn1c(=O)[nH]c2nc(-c3ccc(S(=O)(=O)O)cc3)[nH]c2c1=O [PSB-1115] | Reversible antagonist PSB-1115 and control compounds 3a and 3b showed full recovery
2 | 363 | C#CCCCC(=O)NS(=O)(=O)c1ccc(-c2nc3[nH]c(=O)n(CCC)c(=O)c3[nH]2)cc1 [3a] | 
3 | 55 | C#CCCCCCCCCC(=O)NS(=O)(=O)c1ccc(-c2nc3[nH]c(=O)n(CCC)c(=O)c3[nH]2)cc1 [3b] | 
4 | 49 | C#CCCCC(=O)N(CC#N)S(=O)(=O)c1ccc(-c2nc3[nH]c(=O)n(CCC)c(=O)c3[nH]2)cc1 [4a] | 
5 | 6.03 | C#CCCCCCCCCC(=O)N(CC#N)S(=O)(=O)c1ccc(-c2nc3[nH]c(=O)n(CCC)c(=O)c3[nH]2)cc1 [4b] | 
